Data taken from US20230365553A1, “COMPOUNDS AND COMPOSITIONS FOR TREATING CONDITIONS ASSOCIATED WITH STING ACTIVITY” (IFM Due, Inc., priority 2020, published 2023).

Molecular target: T1, STING (Homo sapiens, UniProt Q86WV6, G230A/H232R/R293Q/R71H)
T1 construct: host or cells: THP1-Dual KO-IFNAR2 cells
Assay: STING reporter assay: luciferase reporter activity in THP1-Dual KO-IFNAR2 cells stimulated with 2′3′cGAMP
Format: cell-based
Details: 15 μM 2′3′cGAMP, 24h, read-out: hSTING EC50
In short: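 THP1-Dual KO-IFNAR2 cells (2×10E6 cells/mL) were exposed to compounds at 0.0017-100 μM, then stimulated with 2′3′cGAMP (15 μM final) transfected via Lipofectamine 2000. After 24h at 37° C., secreted luciferase in supernatant was read by QUANTI-Luc luminescence; EC50 derived from concentration-response.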

T1 sequence (Q86WV6 whole entry R71H/G230A/H232R/R293Q): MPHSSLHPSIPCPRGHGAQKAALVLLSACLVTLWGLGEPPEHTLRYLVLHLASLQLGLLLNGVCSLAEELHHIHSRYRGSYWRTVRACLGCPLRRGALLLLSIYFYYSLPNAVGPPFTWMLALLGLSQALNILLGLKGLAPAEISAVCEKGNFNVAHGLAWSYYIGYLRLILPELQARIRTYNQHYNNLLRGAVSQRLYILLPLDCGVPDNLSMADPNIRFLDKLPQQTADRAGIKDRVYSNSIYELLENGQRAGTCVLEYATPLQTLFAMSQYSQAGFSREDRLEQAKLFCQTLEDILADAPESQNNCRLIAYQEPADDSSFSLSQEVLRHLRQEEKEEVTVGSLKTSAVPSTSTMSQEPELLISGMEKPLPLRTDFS

Compound | EC50 [µM]
O=C1CC(C(=O)Nc2c[nH]c3ccc(-c4cnn(-c5ccc(C(F)(F)F)cc5)c4)cc23)CCN1 (stereo not drawn) [Compound 219, 2-oxo-N-(5-(1-(4-(trifluoromethyl)phenyl)-1H-pyrazol-4-yl)-1H-indol-3-yl)piperidine-4-carboxamide] | 1 to 5
CCC(=O)Nc1c[nH]c2ccc(-c3cnn(-c4ccccn4)c3)cc12 [Compound 138, N-(5-(1-(pyridin-2-yl)-1H-pyrazol-4-yl)-1H-indol-3-yl)propionamide] | 5 to 100
CC(=O)NC(C(=O)Nc1c[nH]c2ccc(-c3cnn(-c4ccc(C(F)(F)F)cc4)c3)cc12)C(C)C (stereo not drawn) [Compound 218, 2-acetamido-3-methyl-N-(5-(1-(4-(trifluoromethyl)phenyl)-1H-pyrazol-4-yl)-1H-indol-3-yl)butanamide] | 1 to 5
CCC(=O)Nc1c[nH]c2ccc(-c3cnn(-c4ccc(C(F)(F)F)c(COC)c4)c3)cc12 [Compound 256, N-(5-(1-(3-(methoxymethyl)-4-(trifluoromethyl)phenyl)-1H-pyrazol-4-yl)-1H-indol-3-yl)propionamide] | 1 to 5
Cn1cnc(C(=O)Nc2c[nH]c3ccc(-c4cnn(-c5ccc(C(F)(F)F)cc5)c4)cc23)c1 [Compound 281, 1-methyl-N-(5-(1-(4-(trifluoromethyl)phenyl)-1H-pyrazol-4-yl)-1H-indol-3-yl)-1H-imidazole-4-carboxamide] | 1 to 5
O=C(CNCC(F)(F)F)Nc1c[nH]c2ccc(-c3cnn(-c4ccc(C(F)(F)F)cc4)c3)cc12 [Compound 183, 2-((2,2,2-trifluoroethyl)amino)-N-(5-(1-(4-(trifluoromethyl)phenyl)-1H-pyrazol-4-yl)-1H-indol-3-yl)acetamide] | 1 to 5
N#Cc1cc(C(=O)Nc2c[nH]c3ccc(-c4cnn(-c5ccc(C(F)(F)F)cc5)c4)cc23)n[nH]1 [Compound 264, 5-cyano-N-(5-(1-(4-(trifluoromethyl)phenyl)-1H-pyrazol-4-yl)-1H-indol-3-yl)-1H-pyrazole-3-carboxamide] | 1 to 5
CN1CCC(C(=O)Nc2c[nH]c3ccc(-c4cnn(-c5ccc(C(F)(F)F)cc5)c4)cc23)C1=O (stereo not drawn) [Compound 211, 1-methyl-2-oxo-N-(5-(1-(4-(trifluoromethyl)phenyl)-1H-pyrazol-4-yl)-1H-indol-3-yl)pyrrolidine-3-carboxamide] | 1 to 5
CC(=O)NC(C)(C)C(=O)Nc1c[nH]c2ccc(-c3cnn(-c4ccc(C(F)(F)F)cc4)c3)cc12 [Compound 181, 2-acetamido-2-methyl-N-(5-(1-(4-(trifluoromethyl)phenyl)-1H-pyrazol-4-yl)-1H-indol-3-yl)propanamide] | 5 to 100
CN1C(=O)CC[C@H]1C(=O)Nc1c[nH]c2ccc(-c3cnn(-c4ccc(C(F)(F)F)cc4)c3)cc12 [Compound 209, (S)-1-methyl-5-oxo-N-(5-(1-(4-(trifluoromethyl)phenyl)-1H-pyrazol-4-yl)-1H-indol-3-yl)pyrrolidine-2-carboxamide] | 5 to 100
CCC(=O)Nc1c[nH]c2ccc(-c3cnn(Cc4cccc(C(F)(F)F)c4)c3)cc12 [Compound 127, N-(5-(1-(3-(trifluoromethyl)benzyl)-1H-pyrazol-4-yl)-1H-indol-3-yl)propionamide] | 0.2 to 1
O=C(Nc1c[nH]c2ccc(-c3cnn(-c4ccc(C(F)(F)F)cc4)c3)cc12)c1cncs1 [Compound 268, N-(5-(1-(4-(trifluoromethyl)phenyl)-1H-pyrazol-4-yl)-1H-indol-3-yl)thiazole-5-carboxamide] | 0.2 to 1
NC1(C(=O)Nc2c[nH]c3ccc(-c4cnn(-c5ccc(C(F)(F)F)cc5)c4)cc23)CC(F)(F)C1 [Compound 185, 1-amino-3,3-difluoro-N-(5-(1-(4-(trifluoromethyl)phenyl)-1H-pyrazol-4-yl)-1H-indol-3-yl)cyclobutane-1-carboxamide] | 5 to 100
CCC(=O)Nc1c[nH]c2ccc(-c3ccc(-c4cnn(C(C)C)c4)cc3)cc12 [Compound 118, N-(5-(4-(1-isopropyl-1H-pyrazol-4-yl)phenyl)-1H-indol-3-yl)propionamide] | 1 to 5
O=C(Nc1c[nH]c2ccc(-c3cnn(Cc4ccc(C(F)(F)F)cn4)c3)cc12)C1CCC1 [Compound 253, N-(5-(1-((5-(trifluoromethyl)pyridin-2-yl)methyl)-1H-pyrazol-4-yl)-1H-indol-3-yl)cyclobutanecarboxamide] | 0.2 to 1
COCC(=O)Nc1c[nH]c2ccc(-c3cnn(-c4ccc(C(F)(F)F)cc4)c3)cc12 [Compound 174, 2-methoxy-N-(5-(1-(4-(trifluoromethyl)phenyl)-1H-pyrazol-4-yl)-1H-indol-3-yl)acetamide] | 0.2 to 1
CCc1ccc(-n2cc(-c3ccc4[nH]cc(NC(=O)C5CN(C)C5)c4c3)cn2)cc1 [Compound 129, N-(5-(1-(4-ethylphenyl)-1H-pyrazol-4-yl)-1H-indol-3-yl)-1-methylazetidine-3-carboxamide] | 5 to 100
CCC(=O)Nc1c[nH]c2ccc(-c3cnn(-c4ccc(CC(F)(F)F)cc4)c3)cc12 [Compound 102, N-(5-(1-(4-(2,2,2-trifluoroethyl)phenyl)-1H-pyrazol-4-yl)-1H-indol-3-yl)propionamide] | 0.2 to 1
CCC(=O)Nc1c[nH]c2ccc(-c3ccc(C4(C#N)CC4)cc3)cc12 [Compound 144, N-(5-(4-(1-cyanocyclopropyl)phenyl)-1H-indol-3-yl)propionamide] | 5 to 100
Cn1cc(C(=O)Nc2c[nH]c3ccc(-c4cnn(-c5ccc(C(F)(F)F)cc5)c4)cc23)cn1 [Compound 278, 1-methyl-N-(5-(1-(4-(trifluoromethyl)phenyl)-1H-pyrazol-4-yl)-1H-indol-3-yl)-1H-pyrazole-4-carboxamide] | 0.2 to 1
CC(=O)Nc1c[nH]c2ccc(-c3cnn(-c4ccc(Cl)c(Cl)c4)c3)cc12 [Compound 168, N-(5-(1-(3,4-dichlorophenyl)-1H-pyrazol-4-yl)-1H-indol-3-yl)acetamide] | 0.2 to 1
CCC(=O)Nc1c[nH]c2ccc(-c3cnn(-c4ccc(COC)cc4)c3)cc12 [Compound 104, N-(5-(1-(4-(methoxymethyl)phenyl)-1H-pyrazol-4-yl)-1H-indol-3-yl)propionamide] | 0.2 to 1

Results, then the compound that gave them:

EC50 [µM] | Compound
0.2 to 1 | Cc1cc(C(=O)Nc2c[nH]c3ccc(-c4cnn(-c5ccc(C(F)(F)F)cc5)c4)cc23)on1 [Compound 271, 3-methyl-N-(5-(1-(4-(trifluoromethyl)phenyl)-1H-pyrazol-4-yl)-1H-indol-3-yl)isoxazole-5-carboxamide]
0.2 to 1 | O=C(Nc1c[nH]c2ccc(-c3cnn(-c4ccc(C5CC(F)(F)C5)cc4)c3)cc12)C1CCC1 [Compound 259, N-(5-(1-(4-(3,3-difluorocyclobutyl)phenyl)-1H-pyrazol-4-yl)-1H-indol-3-yl)cyclobutanecarboxamide]
0.2 to 1 | CCC(=O)Nc1c[nH]c2cc(F)c(-c3cnn(-c4ccc(CC)cc4)c3)cc12 [Compound 103, N-(5-(1-(4-ethylphenyl)-1H-pyrazol-4-yl)-6-fluoro-1H-indol-3-yl)propionamide]
0.2 to 1 | Cn1cc(C(=O)Nc2c[nH]c3ccc(-c4cnn(-c5ccc(C(F)(F)F)cc5)c4)cc23)nn1 [Compound 279, 1-methyl-N-(5-(1-(4-(trifluoromethyl)phenyl)-1H-pyrazol-4-yl)-1H-indol-3-yl)-1H-1,2,3-triazole-4-carboxamide]
0.2 to 1 | O=C(Nc1c[nH]c2ccc(-c3cnn(-c4ccc(C(F)(F)F)cc4)c3)cc12)C1CC(O)C1 (stereo not drawn) [Compound 242, 3-hydroxy-N-(5-(1-(4-(trifluoromethyl)phenyl)-1H-pyrazol-4-yl)-1H-indol-3-yl)cyclobutane-1-carboxamide]
0.2 to 1 | CC(=O)Nc1c[nH]c2ccc(-c3cnn([C@H](C)c4cccc(C(F)(F)F)c4)c3)cc12 [Compound 176, (R)-N-(5-(1-(1-(3-(trifluoromethyl)phenyl)ethyl)-1H-pyrazol-4-yl)-1H-indol-3-yl)acetamide]
0.2 to 1 | CC(=O)Nc1c[nH]c2ccc(-c3cnn(Cc4cccc(C(F)(F)F)c4)c3)cc12 [Compound 180, N-(5-(1-(3-(trifluoromethyl)benzyl)-1H-pyrazol-4-yl)-1H-indol-3-yl)acetamide]
0.04 to 0.2 | CCc1ccc(-n2cc(-c3ccc4[nH]cc(NC(=O)C5CCCC5)c4c3)cn2)cc1 [Compound 115, N-(5-(1-(4-ethylphenyl)-1H-pyrazol-4-yl)-1H-indol-3-yl)cyclopentanecarboxamide]
0.2 to 1 | Cn1ccc(C(=O)Nc2c[nH]c3ccc(-c4cnn(-c5ccc(C(F)(F)F)cc5)c4)cc23)n1 [Compound 276, 1-methyl-N-(5-(1-(4-(trifluoromethyl)phenyl)-1H-pyrazol-4-yl)-1H-indol-3-yl)-1H-pyrazole-3-carboxamide]
0.04 to 0.2 | CCc1ccc(-n2cc(-c3ccc4[nH]cc(NC(=O)C(C)C)c4c3)cn2)cc1 [Compound 133, N-(5-(1-(4-ethylphenyl)-1H-pyrazol-4-yl)-1H-indol-3-yl)isobutyramide]
0.04 to 0.2 | CCc1ccc(-n2cc(-c3ccc4[nH]cc(NC(=O)C5CCCCC5)c4c3)cn2)cc1 [Compound 123, N-(5-(1-(4-ethylphenyl)-1H-pyrazol-4-yl)-1H-indol-3-yl)cyclohexanecarboxamide]
0.2 to 1 | CCc1ccc(-n2cc(-c3ccc4[nH]cc(NC(=O)C5COC5)c4c3)cn2)cc1 [Compound 112, N-(5-(1-(4-ethylphenyl)-1H-pyrazol-4-yl)-1H-indol-3-yl)oxetane-3-carboxamide]
0.2 to 1 | O=C(Nc1c[nH]c2ccc(-c3cnn(-c4ccc(C(F)(F)F)cc4)c3)cc12)C1CCC1 [Compound 111, N-(5-(1-(4-(trifluoromethyl)phenyl)-1H-pyrazol-4-yl)-1H-indol-3-yl)cyclobutanecarboxamide]
0.04 to 0.2 | CC(=O)Nc1c[nH]c2ccc(-c3cnn(-c4ccc(C(F)(F)F)cc4)c3)cc12 [Compound 245, N-(5-(1-(4-(trifluoromethyl)phenyl)-1H-pyrazol-4-yl)-1H-indol-3-yl)acetamide]
